For orientation: IC50 means the concentration that gives 50% inhibition. Usually Ki stands for the dissociation constant of the complex between target and ligand, obtained from inhibition or displacement. What is called melting point is the temperature of the solid-liquid transition.

In series [1] the target is T1, pancreatic lipase type II (PL) from porcine pancreas (Sus scrofa, UniProt P00591).
T1 construct: purchased Sigma-Aldrich L-SLBD2433V (printed); host or cells: porcine pancreas
T1 sequence (P00591 1-450): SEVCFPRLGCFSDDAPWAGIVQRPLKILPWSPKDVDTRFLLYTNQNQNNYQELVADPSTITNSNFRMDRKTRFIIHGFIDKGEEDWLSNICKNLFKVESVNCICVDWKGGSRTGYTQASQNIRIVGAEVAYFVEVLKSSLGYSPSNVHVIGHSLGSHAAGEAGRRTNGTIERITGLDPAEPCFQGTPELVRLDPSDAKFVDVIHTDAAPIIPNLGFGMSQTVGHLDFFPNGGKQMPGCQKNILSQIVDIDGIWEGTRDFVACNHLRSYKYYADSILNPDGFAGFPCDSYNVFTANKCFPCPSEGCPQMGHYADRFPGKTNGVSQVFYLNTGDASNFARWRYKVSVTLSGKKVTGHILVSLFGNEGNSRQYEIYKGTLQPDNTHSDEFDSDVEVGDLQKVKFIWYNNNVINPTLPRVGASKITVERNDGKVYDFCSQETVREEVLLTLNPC
Briefly: PL inhibition assay. Format: biochemical. The settings on record: p-nitrophenyl dodecanoate substrate, pH 8.4, 37 °C; NA: not active. The text has this: (§1) The enzymes used in this study were pancreatic lipase type II (PL) from porcine pancreas (100–400 units/mg protein, L-SLBD2433V, EC. 3.1.1.3, Sigma-Aldrich, San Luis, MO, USA) and α-glucosidase (AG) type I from Saccharomyces cerevisiae (lyophilized powder, ≥10 units/mg protein, L-SLBX6245, EC 3.2.1.20, Sigma-Aldrich, San Luis, MO, USA). 4-nitrophenyl dodecanoate (Sigma-Aldrich, San Luis, MO, USA) was used as the substrate for PL while 4-nitrophenyl-α-D-glucopyranoside (Sigma-Aldrich, San Luis, MO, USA) for AG. Absorbance readings were performed in a Multiskan GO microplate reader (Thermo Scientific®, Waltham, MA, USA).
Determination of enzymatic inhibition of the identified compounds against the PL enzyme was carried out following the methodology described in the literature with some modifications. The concentrations were evaluated for compounds from 300 to 6.25 µM. […] In 96-well boxes, 30 μL of extract or compound stock solution, 30 μL of PL solution (200 U/mL), and 160 μL of Tris-HCl buffer (0.1 M, pH: 8.4) were mixed. The mixture obtained was pre-incubated for 30 min at 37 °C. Subsequently, 30 μL of p-nitrophenyl dodecanoate (100 μM) were added to complete a final volume of 250 μL and incubated for 40 min at 37 °C. After the incubation time, the absorbance was measured at 405 nm. All assays were performed in triplicate in two independent assays. IC50 values were estimated by nonlinear regression analysis. Statistically significant differences in biological effects of inhibitors (compounds) were analyzed and compared using the ANOVA test, supplemented by Tukey HSD post hoc analysis. All reported data corresponded to the average of three repetitions ± SD, and the statistical significance considered was p < 0.05.

In series [2] the target is T1, pancreatic lipase type II (PL) from porcine pancreas. Kind of series: Kinetic study on PL (Ki, type of inhibition). Format: biochemical. Conditions: for Pancreatic Lipase Inhibition Type: Lineweaver–Burk, abbreviated UC, C, NC, M in Table S1; for Ki: nonlinear regression of enzyme inhibition kinetics.
Excerpt: as §1
(§2) Kinetic studies to determine the type of inhibition were performed with PL and AG using a methodology the same as that described in the inhibitory activity assays. […] Five substrate concentrations were used for each of the enzymes in the range between 12.5 to 200 μM p-nitrophenyl dodecanoate for PL and 25 to 800 μM for p-nitrophenyl-α-D-glucopyranoside in AG. Kinetic experiments were performed in triplicate in two independent experiments. Inhibition constants (Ki) were calculated from (substrate) vs reaction rate curves using nonlinear regression of the enzyme inhibition kinetic function. Additionally, the inhibition mechanism was graphically determined by applying the double reciprocal Lineweaver–Burk regression function.

For series [3], the target named is T2, α-glucosidase (AG) type I from Saccharomyces cerevisiae (Saccharomyces cerevisiae, UniProt P53341).
T2 construct: purchased Sigma-Aldrich L-SLBX6245 (printed); host or cells: Saccharomyces cerevisiae
Briefly: biochemical. The settings on record: α-Glucosidase IC50, p-nitrophenyl-α-D-glucopyranoside substrate, pH 7.2, 37 °C; NA: not active.
Excerpt: as §1
Determination of enzyme inhibition of the compounds identified against the AG enzyme was carried out following the methodology described in the literature with some modifications. The concentrations were evaluated for compounds from 300 to 6.25 µM. […] In 96-well boxes, 10 μL of stock solution of each extract or compound, 20 μL of GA solution (0.5 U/mL), and 200 μL of phosphate buffer (0.1 M, pH: 7.2) were mixed. The mixture obtained was pre-incubated for 30 min at 37 °C. […] After the reaction time, the absorbance at 405 nm was measured. […] Statistically significant differences in the biological effects of inhibitors (compounds) were analyzed and compared using ANOVA, supplemented by Tukey HSD post hoc analysis. […]

The target in series [4] is T2, α-glucosidase (AG) type I from Saccharomyces cerevisiae. Briefly: Kinetic study on AG (Ki, type of inhibition). The settings on record: for α-Glucosidase Inhibition Type: Lineweaver–Burk, abbreviated M, NC in Table S1; for Ki: nonlinear regression of enzyme inhibition kinetics. Format: biochemical.
Excerpt: as §1, §2

The test system of a further series is chemokine receptor CCR5. Set-up: method as in PMID 14561515. The settings on record: cited from earlier work.
For a further series, the system named is AG. Conditions: cited from earlier work.

In brackets after ≈: the same amount, converted by molar mass.

T2 sequence (P53341 whole entry): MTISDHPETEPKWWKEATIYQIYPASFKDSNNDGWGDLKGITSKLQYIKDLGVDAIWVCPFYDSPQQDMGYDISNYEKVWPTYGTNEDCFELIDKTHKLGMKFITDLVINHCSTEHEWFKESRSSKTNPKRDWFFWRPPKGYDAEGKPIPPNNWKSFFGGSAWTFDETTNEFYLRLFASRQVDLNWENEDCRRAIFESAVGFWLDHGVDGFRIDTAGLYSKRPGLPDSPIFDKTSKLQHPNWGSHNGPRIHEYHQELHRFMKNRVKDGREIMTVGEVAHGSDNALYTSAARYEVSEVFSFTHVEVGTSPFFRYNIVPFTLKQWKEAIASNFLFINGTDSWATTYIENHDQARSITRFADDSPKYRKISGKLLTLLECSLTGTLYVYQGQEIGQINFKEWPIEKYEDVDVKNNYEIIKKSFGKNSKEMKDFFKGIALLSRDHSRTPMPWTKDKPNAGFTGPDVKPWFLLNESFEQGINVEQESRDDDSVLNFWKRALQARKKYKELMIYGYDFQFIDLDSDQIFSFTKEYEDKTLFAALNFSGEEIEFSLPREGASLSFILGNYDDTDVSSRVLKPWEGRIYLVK

As for `CC(C)=CC(=O)c1ccccc1O` [Compound 5, 1-(2-Hydroxy-phenyl)-3-methyl-but-2-en-1-one], in series [1], inhibition was half-maximal at 48.3 ± 2.57 µM (IC50). In series [2], the “Pancreatic Lipase Inhibition Type” value is given as “Noncompetitive” and the affinity, expressed as Ki, was 48.3 µM.
`CC(C)=CCCC(C)=CC(O)c1ccc2c(c1)C=CC(C)(C)O2` (stereo not drawn) [Compound 7, 1-(2,2-Dimethyl-2H-chromen-6-yl)-3,7-dimethyl-octa-2,6-dien-1-ol]: the IC50 in series [1] is 33.1 ± 5.28 µM. The compound also returned an IC50 in series [3] of 134 ± 5.6 µM. In series [2], the “Pancreatic Lipase Inhibition Type” value is “Competitive” and affinity was put at a Ki of 25.4 µM. Moreover, in series [4], the “α-Glucosidase Inhibition Type” value is recorded as “Noncompetitive” and affinity was put at a Ki of 136 µM.
Regarding `CCCCCCCCCCC[C@@H](C[C@@H]1OC(=O)[C@H]1CCCCCC)OC(=O)[C@H](CC(C)C)NC=O` [Orlistat, reference compound], the “Pancreatic Lipase Inhibition Type” value in series [2] is “Irreversible”.
`COc1ccc(C(=O)O)cc1CC=C(C)C` [Compound 4, 4-methoxy-3-(3′-methyl-2’-butenyl)benzoic acid] had a melting point of 112 to 113 °C. Further, the “Pancreatic Lipase IC50” value in series [1] was “did not show any activity”. The “ability to bind to the chemokine receptor CCR5” value in the series on chemokine receptor CCR5 was “confirmed”.
Take `CC(C)=CCC/C(C)=C/C(=O)c1cc(C(=O)O)cc(CC=C(C)C)c1O` [Compound 1, (2′E) cumenic acid]: in series [1], half-maximal inhibition (IC50) required 33.8 ± 5.95 µM. The compound also returned a Ki in series [2] of 7.88 µM.
Compound `CC(C)=CCC/C(C)=C\C(=O)c1cc(C(=O)O)cc(CC=C(C)C)c1O` [Compound 2, (2′Z) cumenic acid] yielded a melting point of 132 to 134 °C. Further, half-maximal inhibition in series [1] (IC50) required 36.2 ± 5.05 µM. The compound further returned a Ki in series [2] of 8.46 µM.
`C[C@H]1O[C@H](O[C@H]2[C@H](O)[C@@H](O)[C@@H](O[C@H]3[C@H](O)[C@@H](O)C(O)O[C@@H]3CO)O[C@@H]2CO)[C@H](O)[C@@H](O)[C@@H]1N[C@H]1C=C(CO)[C@@H](O)[C@H](O)[C@H]1O` (stereo partly drawn) [Acarbose, reference compound]: the “α-Glucosidase Inhibition Type” value in series [4] is given as “Competitive”.
Take `CO[C@H]1C=CC(=O)N1C(=O)CCc1ccccc1` [chaplupyrrolidone B]: the IC50 in the series on AG is 430 µM.
As for `O=C(/C=C/C=C/c1ccc2c(c1)OCO2)N1CCCCC1` [piperine], the “IC50 on AG” value in the series with AG is 147 µg/mL (≈ 515 µM).
Compound `CC(C)=CCCC1(C)C=Cc2cc(C(=O)O)cc(CC=C(C)C)c2O1` (stereo not drawn) [Compound 3, gaudichaudianic acid] displayed an IC50 in series [1] of 36.3 ± 6.5 µM. Further, in series [2], the “Pancreatic Lipase Inhibition Type” value is on record as “Competitive” and the affinity corresponds to a Ki of 18 µM.
`COC(=O)c1cc(CC=C(C)C)c(O)c(C(=O)C=C(C)CCC=C(C)C)c1` [Compound 8, 3-(3,7-Dimethyl-octa-2,6-dienoyl)-4-hydroxy-5-(3-methyl-but-2-enyl)-benzoic acid methyl ester] had a half-maximal inhibitory concentration (IC50) in series [1] of 55.8 ± 2.98 µM. Also, in series [2], the “Pancreatic Lipase Inhibition Type” value is “Mixed” and affinity was put at a Ki of 42.8 µM.
Take `CCCCC1(O)CC(C)(C)Oc2ccccc21` (stereo not drawn) [Compound 6, 4-Butyl-2,2-dimethyl-chroman-4-ol]: the IC50 was 28.3 ± 2.9 µM in series [1] and 154 ± 4.65 µM in series [3]. Besides, the “Pancreatic Lipase Inhibition Type” value in series [2] is “Noncompetitive”. For the same compound, the Ki in series [2] is 28.3 µM; in series [4] it was 51.3 µM. Besides, in series [4], the “α-Glucosidase Inhibition Type” value is reported as “mixed-type”.

Source of the values: article PMC9460781, “In Vitro and In Silico Study of the α-Glucosidase and Lipase Inhibitory Activities of Chemical Constituents from Piper cumanense (Piperaceae) and Synthetic Analogs” (Plants, 2022).
